Experimental data reported in patent US11186564B2, “Dual NAV1.2/5HT2a inhibitors for treating CNS disorders” (Sunovion Pharmaceuticals Inc., priority 2016, dated 2021).
Read-outs that look alike come from different tables or passages of the source.

Experiments:
[1] = biological target: human sodium channel NaV1.2 (Homo sapiens, UniProt Q99250); assay: NaV1.2 inhibition, automated patch-clamp (Q-Patch HTX), slow inactivated state (state C); format: cell-based; conditions: hNaV1.2 CHO cells, slow inactivated state; for IC50: read-out: NaV1.2 IC50; for inhibition at 10 µM: 10 μM compound, read-out: NaV1.2 (% inh), 10 μM; for inhibition at 1 µM: 1 μM compound, read-out: NaV1.2 (% inh), 1 μM
human sodium channel NaV1.2, sequence (Q99250 whole entry): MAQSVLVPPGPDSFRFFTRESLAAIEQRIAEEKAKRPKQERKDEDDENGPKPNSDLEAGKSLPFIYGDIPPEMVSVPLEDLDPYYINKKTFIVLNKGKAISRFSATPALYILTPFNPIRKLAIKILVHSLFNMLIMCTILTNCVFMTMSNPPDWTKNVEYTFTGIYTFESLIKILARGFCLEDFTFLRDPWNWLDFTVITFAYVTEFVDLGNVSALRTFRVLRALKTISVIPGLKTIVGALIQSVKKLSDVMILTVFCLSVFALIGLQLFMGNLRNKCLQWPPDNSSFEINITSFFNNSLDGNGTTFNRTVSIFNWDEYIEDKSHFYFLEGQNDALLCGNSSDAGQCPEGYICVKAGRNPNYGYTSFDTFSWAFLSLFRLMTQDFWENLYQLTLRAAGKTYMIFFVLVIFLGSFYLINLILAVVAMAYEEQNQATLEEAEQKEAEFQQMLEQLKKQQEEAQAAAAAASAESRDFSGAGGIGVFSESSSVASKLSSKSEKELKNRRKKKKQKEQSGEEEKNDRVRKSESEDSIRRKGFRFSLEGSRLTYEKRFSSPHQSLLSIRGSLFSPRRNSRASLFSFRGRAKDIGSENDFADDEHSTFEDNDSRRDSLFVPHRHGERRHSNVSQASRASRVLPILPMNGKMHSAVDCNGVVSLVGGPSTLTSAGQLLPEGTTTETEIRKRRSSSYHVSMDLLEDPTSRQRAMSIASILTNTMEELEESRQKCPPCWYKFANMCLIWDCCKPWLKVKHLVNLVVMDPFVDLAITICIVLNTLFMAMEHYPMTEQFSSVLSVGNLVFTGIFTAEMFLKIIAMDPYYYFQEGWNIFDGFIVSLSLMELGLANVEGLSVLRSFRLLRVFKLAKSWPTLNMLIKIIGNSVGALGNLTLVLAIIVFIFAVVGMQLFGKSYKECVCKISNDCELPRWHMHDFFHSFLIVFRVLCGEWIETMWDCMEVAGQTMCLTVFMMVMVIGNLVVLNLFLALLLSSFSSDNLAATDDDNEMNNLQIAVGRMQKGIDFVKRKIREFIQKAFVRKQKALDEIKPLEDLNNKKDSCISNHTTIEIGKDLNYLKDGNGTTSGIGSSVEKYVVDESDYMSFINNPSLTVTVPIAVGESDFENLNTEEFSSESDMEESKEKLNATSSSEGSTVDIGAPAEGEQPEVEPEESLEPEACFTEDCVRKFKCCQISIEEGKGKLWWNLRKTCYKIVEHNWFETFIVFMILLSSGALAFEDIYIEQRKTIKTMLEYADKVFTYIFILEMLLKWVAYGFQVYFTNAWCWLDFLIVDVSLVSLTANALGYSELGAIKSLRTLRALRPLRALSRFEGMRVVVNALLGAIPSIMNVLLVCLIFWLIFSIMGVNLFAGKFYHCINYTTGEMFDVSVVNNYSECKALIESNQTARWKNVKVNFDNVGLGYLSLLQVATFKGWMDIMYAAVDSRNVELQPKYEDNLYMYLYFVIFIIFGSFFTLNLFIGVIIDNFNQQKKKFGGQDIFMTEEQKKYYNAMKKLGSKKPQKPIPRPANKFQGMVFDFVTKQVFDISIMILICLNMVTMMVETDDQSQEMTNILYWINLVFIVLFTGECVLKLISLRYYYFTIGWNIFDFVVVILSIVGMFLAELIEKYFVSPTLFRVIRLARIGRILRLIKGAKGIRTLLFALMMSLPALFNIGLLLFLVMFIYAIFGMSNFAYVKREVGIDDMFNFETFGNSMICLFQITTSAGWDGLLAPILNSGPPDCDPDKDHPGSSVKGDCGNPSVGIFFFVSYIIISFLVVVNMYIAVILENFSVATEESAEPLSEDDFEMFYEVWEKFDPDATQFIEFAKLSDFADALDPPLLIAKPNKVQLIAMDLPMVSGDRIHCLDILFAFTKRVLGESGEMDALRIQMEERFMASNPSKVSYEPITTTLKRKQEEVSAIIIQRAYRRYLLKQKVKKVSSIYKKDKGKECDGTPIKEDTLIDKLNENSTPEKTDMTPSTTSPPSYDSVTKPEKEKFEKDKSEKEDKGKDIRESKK
Description: In vitro method for NaV1.2 inhibition assays: The methods utilized to assess the inhibitory activity of compounds on NaV1.2 were based on the methods described by Liu et al. [Liu Y, Beck E J, & Flores C M (2011): Validation of a patch clamp screening protocol that simultaneously measures compound activity in multiple states of the voltage-gated sodium channel Nav1.2. Assay Drug Development Technology 9, 628-634]. For these electrophysiology assays, a cell line (Chinese Hamster Ovarian K-1 cells (CHO K-1)) engineered to stably express human sodium channel NaV1.2 was purchased from Millipore Corporation (catalog no. CYL3023). The electrophysiology measurements were performed using automated patch-clamp methods on a Q-Patch HTX instrument by scientists at Evotec AG under contract with Sunovion.
The solutions utilized for the Qpatch experiments were similar buffered solutions to those described by Liu et al. [Liu Y, Beck E J, & Flores C M (2011)]. The extracellular solution contained 140 millimolar sodium chloride, 4 millimolar potassium chloride, 2 millimolar calcium chloride, 1 millimolar magnesium chloride, 10 millimolar 4-(2-hydroxyethyl)-1-piperazineethanesulfonic acid (HEPES), and 10 millimolar glucose (pH adjusted to 7.4 with sodium hydroxide). The intracellular solution contained 100 millimolar cesium fluoride, 45 millimolar cesium chloride, 10 millimolar HEPES, 5 millimolar ethylene glycol tetraacetic acid (EGTA), and 5 millimolar glucose (pH adjusted to 7.2 with cesium hydroxide).
The biophysical experiments of Lui et al. [Liu Y, Beck E J, & Flores C M (2011)] were replicated to assess the fast, slow and total inactivation characteristics of the human Nav1.2 channel
Based upon results from studies of the fast, slow and total inactivation characteristics of the human Nav1.2 channel, a voltage protocol involving a sequence of consecutive pulses of current was used to measure channel activity in several states [Liu Y, Beck E J, & Flores C M (2011)]. The monolayer of CHO K-1 cells stably expressing human sodium channel NaV1.2 (hNaV1.2 CHO cells) was maintained in the Qpatch instrument at a potential of −100 millivolts (mV) except when the voltage protocol was being executed. The first pulse in the protocol involved a 100 millisecond depolarization to 0 mV to enable measurement of channel availability in the closed state (state A). The potential was then maintained at −90 mV for 15 milliseconds, followed by a five millisecond period of depolarization to 0 mV to enable measurement of channel availability after partial recovery from fast inactivation (state B). Next, the potential was maintained at −90 mV for 300 milliseconds, followed by ten seconds at −50 mV, 15 milliseconds at −90 mV, and finally another five millisecond period of depolarization to 0 mV to enable measurement of channel availability after additional recovery from fast inactivation and significant entry into the slow inactivated state (state C). Finally, after an additional 300 millisecond period at −90 mV, another five millisecond period of depolarization to 0 mV was employed to enable measurement of channel availability after partial recovery from the slow inactivated state (state D). Measurements of activity at state C were used to assess the activity of the NaV1.2 channel in the slow inactivated state. Comparison of activity after addition of test compounds or reference compounds with activity after addition of vehicle only provided a measure of percent remaining activity from which percent inhibition was calculated. […] A slight modification of this protocol was utilized to provide measurements as a function of compound concentration, which enabled IC50 values to be determined. IC50 values were calculated by non-linear least squares regression of the data (percent inhibition of ion channel NaV1.2 activity in the slow inactivated state) onto equation (1): % inhibition=100%/(1+(IC50/[compound]) equation (1)
J Pharmacol Exp Ther. 2008 July; 326(1):89-99.].

[2] = biological target: T1, recombinant human serotonin receptor 5-HT2A (Homo sapiens, UniProt P28223); assay: 5-HT2A antagonist Ca2+ assay in CHO-K1 cells (method A aequorin luminescence / method B FLIPR fluorescence); format: cell-based; conditions: antagonist mode vs EC80 of reference agonist, method A or B
T1 construct: expressed in transfected cells; method B: loaded with Ca2+ dye
T1 sequence (P28223 whole entry): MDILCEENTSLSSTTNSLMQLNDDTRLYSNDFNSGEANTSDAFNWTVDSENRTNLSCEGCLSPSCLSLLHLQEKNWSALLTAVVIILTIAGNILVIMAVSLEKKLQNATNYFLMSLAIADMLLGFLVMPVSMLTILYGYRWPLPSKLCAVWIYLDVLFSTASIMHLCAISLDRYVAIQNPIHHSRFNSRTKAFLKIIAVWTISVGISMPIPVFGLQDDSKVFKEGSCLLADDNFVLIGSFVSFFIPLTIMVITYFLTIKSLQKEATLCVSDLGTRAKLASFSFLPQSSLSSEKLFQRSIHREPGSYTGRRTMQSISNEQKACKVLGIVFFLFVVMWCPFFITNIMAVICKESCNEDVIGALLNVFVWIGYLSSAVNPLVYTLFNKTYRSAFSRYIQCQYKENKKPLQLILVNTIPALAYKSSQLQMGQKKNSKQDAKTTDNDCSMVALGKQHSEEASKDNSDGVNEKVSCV
In short: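 IC50 was obtained by nonlinear regression of percent inhibition of the EC80 agonist Ca2+ response in CHO-K1 cells stably expressing human 5-HT2A. The readout was aequorin luminescence with agonist injected 15 min after compound (A), or Ca2+-dye fluorescence on FLIPR with serotonin as agonist (B).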

Row | SMILES | IC50 [1] [nM] | IC50 ([2]; read-out: 5HT2A IC50) [µM] | inhibition at 10 µM [1] [%] | inhibition at 1 µM [1] [%] | IC50 ([2]; 5HT2A IC50, μM) [µM]
1 | OC(COC1CCCCC1)CN1C[C@@H]2CC[C@H]1CN2c1ccccc1 (stereo partly drawn) [Example 317, 1-(cyclohexyloxy)-3-((1S,4S)-5-phenyl-2,5-diazabicyclo[2.2.2]octan-2-yl)propan-2-ol] | 1830 | 0.49 | – | – | –
2 | O=C1c2ccccc2CCN1CCN1CC[C@H](Oc2ccc(F)cc2)C1 [Example 26, (S)-2-(2-(3-(4-fluorophenoxy)pyrrolidin-1-yl)ethyl)-3,4-dihydroisoquinolin-1(2H)-one] | – | 0.17 | 70 | – | –
3 | O=C1c2ccccc2CCN1CCN1CCC(Oc2ccccc2)CC1 [Example 191, 2-(2-(4-phenoxypiperidin-1-yl)ethyl)-3,4-dihydroisoquinolin-1(2H)-one] | – | 0.05 | 52 | 18 | –
4 | c1ccc(O[C@@H]2COC3(C2)CN(C[C@@H]2CCc4ccccc42)C3)cc1 (single isomer, unassigned) [Compound 364] | 690 | 0.08 | – | – | –
5 | CO[C@@H](CCN1CCC(Oc2ccccc2)CC1)c1ccccc1 [Example 230, (S)-1-(3-methoxy-3-phenylpropyl)-4-phenoxypiperidine] | – | 0.39 | 87 | – | –
6 | Cc1ccc(N2CCN(C[C@H](O)COC3CCCCC3)CC2)cc1 [Example 77, (S)-1-(cyclohexyloxy)-3-(4-(p-tolyl)piperazin-1-yl)propan-2-ol] | 9020 | 0.21 | – | – | –
7 | COc1cccc(CCCN2CCC(Oc3ccccc3)CC2)c1 [Example 225, 1-(3-(3-methoxyphenyl)propyl)-4-phenoxypiperidine] | – | 0.25 | 88 | – | –
8 | Cc1cccc(N2CCN(CC3(O)COCc4ccccc43)CC2)c1C (stereo not shown) [Example 56, 4-((4-(2,3-dimethylphenyl)piperazin-1-yl)methyl)isochroman-4-ol] | 430 | 0.13 | – | – | –
9 | Clc1cccc(N2CCN(Cn3c(COc4ccccc4)nc4ccccc43)CC2)c1 [Example 61, 1-((4-(3-chlorophenyl)piperazin-1-yl)methyl)-2-(phenoxymethyl)-1H-benzo[d]imidazole] | – | 0.2 | 8 | – | –
10 | CN1CCN(CC2CCc3ccccc32)CC(Oc2ccc(F)cc2)C1 (stereo not shown) [Example 277, 1-((2,3-dihydro-1H-inden-1-yl)methyl)-6-(4-fluorophenoxy)-4-methyl-1,4-diazepane] | – | 0.1 | – | 31 | –
11 | Fc1ccc(OC2CCN(CCC3COc4ccccc43)CC2)cc1 (stereo not shown) [Example 176, 1-(2-(2,3-dihydrobenzofuran-3-yl)ethyl)-4-(4-fluorophenoxy)piperidine] | – | 0.08 | – | 41 | –
12 | Fc1ccc(OC2CCN(CCC3CCc4ccncc43)CC2)cc1 (stereo not shown) [Example 174, 7-(2-(4-(4-fluorophenoxy)piperidin-1-yl)ethyl)-6,7-dihydro-5H-cyclopenta[c]pyridine] | – | 0.01 | – | 12 | –
13 | c1ccc2c(c1)CCC1(CCN(CC3COCc4ccccc43)CC1)O2 (stereo not shown) [Example 414, 1′-(isochroman-4-ylmethyl)spiro[chromane-2,4′-piperidine]] | – | 0.26 | – | 29 | –
14 | O[C@@H](COC1CCCCC1)CN1[C@@H]2CC[C@H]1CN(c1ccccc1)C2 [Example 288, (R)-1-(cyclohexyloxy)-3-((1R,5S)-3-phenyl-3,8-diazabicyclo[3.2.1]octan-8-yl)propan-2-ol] | 440 | – | – | – | 0.04
15 | CN(C)c1ccc2c(c1)C(CN1CCC(Oc3ccc(F)cc3)CC1)CC2 (stereo not shown) [Example 116, 3-((4-(4-fluorophenoxy)piperidin-1-yl)methyl)-N,N-dimethyl-2,3-dihydro-1H-inden-5-amine] | 2340 | 0.01 | – | – | –
16 | c1ccc([C@H]2COC3(CCN(C[C@@H]4CCc5ccccc54)CC3)C2)cc1 (single isomer, unassigned) [Compound 378] | 770 | 0.06 | – | – | –
17 | OC(COC1CCCCC1)CN1C[C@@H]2C[C@H]1CN2c1ccccc1 (stereo partly drawn) [Example 306, 1-(cyclohexyloxy)-3-((1S,4S)-5-phenyl-2,5-diazabicyclo[2.2.1]heptan-2-yl)propan-2-ol] | – | 1.66 | 60 | – | –
18 | Fc1ccc(OC2CCN(CC3COc4ccccc43)CC2)cc1 (stereo not shown) [Example 134, 1-((2,3-dihydrobenzofuran-3-yl)methyl)-4-(4-fluorophenoxy)piperidine] | – | 0.02 | – | 14 | –
19 | Cc1ccc(N2CCN(CC(O)COC3CCCCC3)CC2)cc1 (stereo not shown) [Example 76, 1-(cyclohexyloxy)-3-(4-(p-tolyl)piperazin-1-yl)propan-2-ol] | 240 | 0.02 | – | – | –
20 | OC(COC1CCCCC1)CN1[C@@H]2C[C@H]1CN(c1ccccc1)C2 (stereo partly drawn) [Example 281, 1-(cyclohexyloxy)-3-((1R,5S)-3-phenyl-3,6-diazabicyclo[3.1.1]heptan-6-yl)propan-2-ol] | 1790 | 1.36 | – | – | –
21 | c1ccc2c(c1)CCC2CN1CCC2(CCc3ncccc3O2)CC1 (stereo not shown) [Example 403, 1-((2,3-dihydro-1H-inden-1-yl)methyl)-3′,4′-dihydrospiro[piperidine-4,2′-pyrano[3,2-b]pyridine]] | – | 0.004 | – | -4 | –
22 | c1ccc2c(c1)CC1(CCN(CC3CCc4ccccc43)CC1)CO2 (stereo not shown) [Example 442, 1′-((2,3-dihydro-1H-inden-1-yl)methyl)spiro[chromane-3,4′-piperidine]] | – | 0.59 | – | 37 | –
23 | O[C@@H](CO[C@H]1CCCc2ccccc21)CN1CCN(Cc2ccccc2)CC1 [Example 85, (R)-1-(4-benzylpiperazin-1-yl)-3-(((S)-1,2,3,4-tetrahydronaphthalen-1-yl)oxy)propan-2-ol] | – | > 11.9 | – | 24 | –
24 | Cc1cccc(N2CCN(CC(O)COC3(C)COc4ccccc43)CC2)c1C (stereo not shown) [Example 81, 1-(4-(2,3-dimethylphenyl)piperazin-1-yl)-3-((3-methyl-2,3-dihydrobenzofuran-3-yl)oxy)propan-2-ol] | 160 | 0.03 | – | – | –
25 | c1ccc2c(c1)CCC2CN1CCC2(CCc3cccnc3O2)CC1 (stereo not shown) [Example 406, 1-((2,3-dihydro-1H-inden-1-yl)methyl)-3′,4′-dihydrospiro[piperidine-4,2′-pyrano[2,3-b]pyridine]] | – | 0.04 | – | 7 | –
26 | c1ccc(OC2COC3(CCN(CC4CCc5ccccc54)CC3)C2)cc1 (single isomer, unassigned) [Example 380, 8-((2,3-dihydro-1H-inden-1-yl)methyl)-3-phenoxy-1-oxa-8-azaspiro[4.5]decane] | 120 | 0.15 | – | – | –
27 | COc1ccc2c(c1)C(CN1CC[C@H](Oc3ccccc3OC)C[C@@H]1C)CC2 (stereo partly drawn) [Example 104, (2S,4S)-1-((6-methoxy-2,3-dihydro-1H-inden-1-yl)methyl)-4-(2-methoxyphenoxy)-2-methylpiperidine] | – | 0.26 | – | 46 | –
